Assay results taken from ChEMBL document CHEMBL4385607, “Structure- and Ligand-Based Discovery of Chromane Arylsulfonamide Nav1.7 Inhibitors for the Treatment of Chronic Pain” (J Med Chem, 2019).

How the values were obtained:
[1] = Clearance in Sprague-Dawley rat hepatocytes at 1 uM measured up to 3 hrs by LC-MS/MS analysis; type: ADME, cell-based, Hepatocyte
[2] = Volume of distribution at steady state in Sprague-Dawley rat at 1 mg/kg, iv measured upto 8 hrs by LC-MS/MS analysis; type: ADME, organism-based; settings: in vivo, read-out: Vdss
[3] = Volume of distribution at steady state in FVB mouse at 1 mg/kg, iv measured upto 6 hrs by LC-MS/MS analysis; type: ADME, organism-based; settings: in vivo, read-out: Vdss
[4] = Dissociation constant, acidic pKa of compound by spectrophotometric method; type: physicochemical
[5] = Clearance in human hepatocytes at 1 uM measured up to 3 hrs by LC-MS/MS analysis; type: ADME, cell-based, Hepatocyte
[6] = Ratio of drug uptake in Sprague-Dawley rat liver to plasma at 5 mg/kg, po measured up to 8 hrs by LC-MS/MS analysis; type: ADME, organism-based
[7] = Lipophilicity, log D of compound at pH 7.4; type: physicochemical; settings: buffer
[8] = Blood clearance in FVB mouse at 1 mg/kg, iv measured upto 6 hrs by LC-MS/MS analysis; type: ADME, organism-based; settings: whole blood
[9] = Plasma clearance in Sprague-Dawley rat at 1 mg/kg, iv measured up to 8 hrs by LC-MS/MS analysis; type: ADME, organism-based
[10] = Clearance in Sprague-Dawley rat at 1 mg/kg, iv measured upto 8 hrs by LC-MS/MS analysis relative to hepatic blood flow; type: ADME, organism-based; settings: in vivo
[11] = Clearance in cynomolgus monkey at 0.5 mg/kg, iv administered as single dose measured upto 24 hrs by LC-MS/MS analysis relative to hepatic blood flow; type: ADME, organism-based, Macaca fascicularis; settings: in vivo
[12] = Half life in cynomolgus monkey at 0.5 mg/kg, iv administered as single dose measured upto 24 hrs by LC-MS/MS analysis; type: ADME, organism-based, Macaca fascicularis; settings: in vivo
[13] = Half life in Beagle dog at 0.5 mg/kg, iv administered as single dose measured upto 24 hrs by LC-MS/MS analysis; type: ADME, organism-based, Canis lupus familiaris; settings: in vivo
[14] = Plasma clearance in cynomolgus monkey at 0.5 mg/kg, iv administered as single dose measured upto 24 hrs by LC-MS/MS analysis; type: ADME, organism-based, Macaca fascicularis
[15] = Volume of distribution at steady state in cynomolgus monkey at 0.5 mg/kg, iv administered as single dose measured upto 24 hrs by LC-MS/MS analysis; type: ADME, organism-based, Macaca fascicularis; settings: in vivo, read-out: Vdss
[16] = Oral bioavailability in cynomolgus monkey at 0.5 mg/kg administered as single dose measured upto 24 hrs by LC-MS/MS analysis; type: ADME, organism-based, Macaca fascicularis; settings: in vivo
[17] = Oral bioavailability in Sprague-Dawley rat at 5 mg/kg measured upto 8 hrs by LC-MS/MS analysis; type: ADME, organism-based; settings: in vivo
[18] = Volume of distribution at steady state in Beagle dog at 0.5 mg/kg, iv administered as single dose measured upto 24 hrs by LC-MS/MS analysis; type: ADME, organism-based, Canis lupus familiaris; settings: in vivo, read-out: Vdss
[19] = Clearance in Beagle dog at 0.5 mg/kg, iv administered as single dose measured upto 24 hrs by LC-MS/MS analysis relative to hepatic blood flow; type: ADME, organism-based, Canis lupus familiaris; settings: in vivo
[20] = Half life in Sprague-Dawley rat at 1 mg/kg, iv measured upto 8 hrs by LC-MS/MS analysis; type: ADME, organism-based; settings: in vivo
[21] = Plasma clearance in Beagle dog at 0.5 mg/kg, iv administered as single dose measured upto 24 hrs by LC-MS/MS analysis; type: ADME, organism-based, Canis lupus familiaris
[22] = Oral bioavailability in Beagle dog at 0.5 mg/kg administered as single dose measured upto 24 hrs by LC-MS/MS analysis; type: ADME, organism-based, Canis lupus familiaris; settings: in vivo
[23] = Drug excretion in Sprague-Dawley rat bile at 1 mg/kg, iv or 5 mg/kg, po measured up to 8 hrs by LC-MS/MS analysis; type: ADME, organism-based; settings: in vivo
[24] = Drug metabolism in human hepatocytes assessed as oxidation of arene ring at 1 uM measured up to 3 hrs by LC-MS/MS analysis; type: ADME, cell-based, Hepatocyte
[25] = Drug level in plasma of FVB transgenic mouse model of inherited erythromelalgia xenografted with human HEK293 cells harboring I848T mutation at 15 mg/kg, po measured after 70 mins by LC-MS/MS analysis; type: ADME, organism-based
[26] = Dissociation constant, basic pKa of compound; type: physicochemical
[27] = Drug level in plasma of FVB transgenic mouse model of inherited erythromelalgia xenografted with human HEK293 cells harboring I848T mutation at 50 mg/kg, po measured after 70 mins by LC-MS/MS analysis; type: ADME, organism-based

Structure (SMILES): O=S(=O)(Nc1ccncn1)c1cc2c(cc1F)[C@@H](N1CC[C@H](C(F)(F)F)C[C@@H]1c1ccc(F)cc1)CCO2
- CLhep predicted at 1 µM [1]: 14 mL/min/kg
- Vd [2]: 0.7 L/kg
- Vd [3]: 0.9 L/kg
- pKa [4]: 5.81
- CLhep predicted at 1 µM [5]: 7.7 mL/min/kg
- Kp at 8 h [6]: 4
- logD [7]: 3.2
- clearance [8]: 8.3 mL/min/kg
- clearance [9]: 0.78 to 0.8 mL/min/kg

Structure (SMILES): O=S(=O)(Nc1ccncn1)c1cc2c(cc1F)[C@@H](N1CC[C@H](C(F)(F)F)C[C@@H]1c1ccncc1)CCO2
- CLhep predicted at 1 µM [1]: 13 mL/min/kg
- CLhep predicted at 1 µM [5]: 13 mL/min/kg
- logD [7]: 1.2
- clearance [9]: 82 mL/min/kg

Structure (SMILES): O=S(=O)(Nc1ncns1)c1ccc2c(c1)OCC[C@@H]2N1CC[C@H](C(F)(F)F)C[C@@H]1c1ccccc1
- CLhep predicted at 1 µM [1]: 32 mL/min/kg
- CLhep predicted at 1 µM [5]: 11 mL/min/kg
- logD [7]: 3.5

Structure (SMILES): Cn1nccc1[C@H]1C[C@@H](C(F)(F)F)CCN1[C@H]1CCOc2cc(S(=O)(=O)Nc3ccncn3)c(F)cc21
- CLhep predicted at 1 µM [1]: 14 mL/min/kg
- CLhep predicted at 1 µM [5]: 14 mL/min/kg
- logD [7]: 0.9
- clearance [9]: 42 mL/min/kg

Structure (SMILES): O=S(=O)(Nc1cccnn1)c1cc2c(cc1F)[C@@H](N1CC[C@H](C(F)(F)F)C[C@@H]1c1ccc(F)cc1)CCO2
- CLhep predicted at 1 µM [1]: < 10 mL/min/kg
- pKa [4]: 6.59
- CLhep predicted at 1 µM [5]: < 6.2 mL/min/kg
- logD [7]: 4.3
- clearance [9]: 0.71 mL/min/kg

Structure (SMILES): O=S(=O)(Nc1ncns1)c1cc(F)c(CN2CC[C@@H](C(F)(F)F)C[C@H]2c2ccccc2)cc1F
- logD [7]: 2.7

Structure (SMILES): O=S(=O)(Nc1ccc(F)cn1)c1cc2c(cc1F)[C@@H](N1CC[C@H](C(F)(F)F)C[C@@H]1c1ccc(F)cc1)CCO2
- CLhep predicted at 1 µM [1]: < 10 mL/min/kg
- pKa [4]: 8.22
- CLhep predicted at 1 µM [5]: < 6.2 mL/min/kg
- logD [7]: 5
- clearance [9]: 4.9 mL/min/kg

Structure (SMILES): O=S(=O)(Nc1ccncn1)c1cc2c(cc1F)[C@@H](N1CC[C@H](C(F)(F)F)C[C@@H]1c1cc[nH]n1)CCO2
- CLhep predicted at 1 µM [1]: 15 mL/min/kg
- CLhep predicted at 1 µM [5]: 9.1 mL/min/kg
- logD [7]: 1.3
- clearance [9]: 93 mL/min/kg

Structure (SMILES): O=S(=O)(Nc1ccncn1)c1cc2c(cc1F)[C@@H](N1CC[C@H](C(F)(F)F)C[C@@H]1c1cnccn1)CCO2
- CLhep predicted at 1 µM [1]: 25 mL/min/kg
- CLhep predicted at 1 µM [5]: 9 mL/min/kg
- logD [7]: 0.5
- clearance [9]: 42 mL/min/kg

Structure (SMILES): O=S(=O)(Nc1ccncn1)c1cc2c(cc1F)[C@@H](N1CC[C@H](C(F)(F)F)C[C@@H]1c1ccccn1)CCO2
- clearance [10]: 8 to 44%
- clearance [11]: 8 to 44%
- CLhep predicted at 1 µM [1]: 17 mL/min/kg
- half-life [12]: 2.1 h
- half-life [13]: 4.3 h
- Vd [2]: 1.2 L/kg
- CLhep predicted at 1 µM [5]: < 6.2 mL/min/kg
- clearance [14]: 19 mL/min/kg
- Vd [15]: 0.66 L/kg
- bioavailability [16]: 18%
- bioavailability [17]: 73%
- Vd [18]: 0.74 L/kg
- clearance [19]: 8 to 44%
- half-life [20]: 1.7 h
- clearance [21]: 2.4 mL/min/kg
- logD [7]: 1.4
- bioavailability [22]: 32%
- clearance [9]: 14 to 15 mL/min/kg

Structure (SMILES): Cn1ccc([C@H]2C[C@@H](C(F)(F)F)CCN2[C@H]2CCOc3cc(S(=O)(=O)Nc4ccncn4)c(F)cc32)n1
- CLhep predicted at 1 µM [1]: 41 mL/min/kg
- CLhep predicted at 1 µM [5]: 8.2 mL/min/kg
- logD [7]: 1.3
- clearance [9]: 46 mL/min/kg

Structure (SMILES): O=S(=O)(Nc1ccncn1)c1cc2c(cc1F)[C@@H](N1CC[C@H](C(F)(F)F)C[C@@H]1c1ccncn1)CCO2
- CLhep predicted at 1 µM [1]: 16 mL/min/kg
- CLhep predicted at 1 µM [5]: 7.8 mL/min/kg
- logD [7]: 0.6

Structure (SMILES): O=S(=O)(Nc1ncns1)c1ccc2c(c1)OCC[C@@H]2N1CC[C@H](C(F)(F)F)C[C@@H]1c1ccc(F)cc1
- CLhep predicted at 1 µM [1]: 17 mL/min/kg
- Vd [2]: 23 L/kg
- Vd [3]: 4.8 L/kg
- pKa [4]: 3.26
- CLhep predicted at 1 µM [5]: 11 mL/min/kg
- Kp at 8 h [6]: 202
- Drug excretion [23]: Active
- logD [7]: 3.2
- Drug metabolism [24]: Metabolite_Notdetected
- clearance [8]: 46 mL/min/kg
- clearance [9]: 62 mL/min/kg

Structure (SMILES): O=S(=O)(Nc1ccncn1)c1cc2c(cc1F)[C@@H](N1CC[C@H](C(F)(F)F)C[C@@H]1c1cnco1)CCO2
- CLhep predicted at 1 µM [1]: 12 mL/min/kg
- CLhep predicted at 1 µM [5]: 12 mL/min/kg
- logD [7]: 0.9
- clearance [9]: 62 mL/min/kg

Structure (SMILES): O=S(=O)(Nc1ncns1)c1cc(F)c(CN2CC[C@H](C(F)(F)F)C[C@@H]2c2ccccc2)cc1F
- concentration at 70 min [25]: 33 µM
- pKa [26]: 5.5
- logD [7]: 2.7
- concentration at 70 min [27]: 58 µM

Structure (SMILES): O=S(=O)(Nc1ccncn1)c1cc2c(cc1F)[C@@H](N1CC[C@H](C(F)(F)F)C[C@@H]1c1cccnc1)CCO2
- CLhep predicted at 1 µM [1]: 26 mL/min/kg
- CLhep predicted at 1 µM [5]: 15 mL/min/kg
- logD [7]: 1.3
- clearance [9]: 101 mL/min/kg

Structure (SMILES): O=S(=O)(Nc1ccncn1)c1cc2c(cc1F)[C@@H](N1CC[C@H](C(F)(F)F)C[C@@H]1c1cn[nH]c1)CCO2
- CLhep predicted at 1 µM [1]: 18 mL/min/kg
- CLhep predicted at 1 µM [5]: 12 mL/min/kg
- logD [7]: 1.1
- clearance [9]: 161 mL/min/kg

Structure (SMILES): O=S(=O)(Nc1ncns1)c1cc(F)c(CN2CCCC[C@@H]2c2ccccc2)cc1F
- logD [7]: 1.9

Structure (SMILES): O=S(=O)(Nc1ccon1)c1cc2c(cc1F)[C@@H](N1CC[C@H](C(F)(F)F)C[C@@H]1c1ccc(F)cc1)CCO2
- CLhep predicted at 1 µM [1]: 13 mL/min/kg
- pKa [4]: 4.49
- CLhep predicted at 1 µM [5]: < 6.2 mL/min/kg
- logD [7]: 2.8
- clearance [9]: 2.1 mL/min/kg

Structure (SMILES): O=S(=O)(Nc1ccncn1)c1cc2c(cc1F)[C@@H](N1CC[C@H](C(F)(F)F)C[C@@H]1c1ccnnc1)CCO2
- CLhep predicted at 1 µM [1]: < 10 mL/min/kg
- CLhep predicted at 1 µM [5]: < 6.2 mL/min/kg
- logD [7]: 0.2

Structure (SMILES): O=S(=O)(Nc1ncns1)c1cc(F)c(CN2CCCC[C@H]2c2ccccc2)cc1F
- logD [7]: 1.9
